Results on two molecules are retold here after US9422566B2, “Gene cluster for biosynthesis of griselimycin and methylgriselimycin” (SANOFI, priority 2011, dated 2016).

What all share (format): biochemical, Streptomyces DSM 22643
Holding throughout (settings): in vitro ATP-[32P]PPi exchange, amino acid 5 mM, 30° C., nine substrates tested

Assay [1] has as its system A domain of module 8 (A8) of NRPS-2. As to the kind of experiment: ATP-PPi exchange assay, substrate specificity of A domain A8. How it is done: (§1) In order to gain insight into the specificity of the A domains of modules 2, 5 and 8, the domains were recombinantly produced and their specificity analysed via an ATP/PPi exchange assay in vitro.
(§2) In order to directly investigate A domain substrate specificity, we aimed to express A domains A2, A5 and A8 from the griselimycin pathway as N-terminally His6-tagged proteins from pET28b (+). […]
(§3) Substrate specificity of the 3 purified adenylation domains was evaluated using the established ATP-PPi exchange assay (Mootz and Marahiel. 1997, Thomas et al., 2002). […] As a control, each protein was incubated in the absence of added amino acid, to determine the radioactivity background reaction. […]
(§4) To determine substrate specificity, ATP-[^32P]PPi reactions (100 μl) containing Tris-HCl (pH 7.5, 75 mM), MgCl2 (10 mM), […] (5 mM), amino acid (5 mM), and protein (2 μg) were performed at 30° C. ^32P-tetrasodium pyrophosphate was obtained from Perkin Elmer (NEN #NEX019). […] The charcoal was pelleted by centrifugation prior to being washed twice with the washing solution 0.1 M Na4P2O7 and 0.35 M perchloric acid in H2O), resuspended in H2O (500 μl), and counted by liquid scintillation (Beckman LS6500).

Assay [2] has as its system A domain of module 2 (A2) of NRPS-1. As to the kind of experiment: ATP-PPi exchange assay, substrate specificity of A domain A2. As for the experimental part: as §1, §2, §3, §4
In assay [3] the test system is A domain of module 5 (A5) of NRPS-1. As to the kind of experiment: ATP-PPi exchange assay, substrate specificity of A domain A5. How it is done: as §1, §2, §3, §4

SMILES strings stand for the structures.

Consider `C[C@H]1CN[C@H](C(=O)O)C1` [(2S,4R)-4-methylproline], for which, in assay [1], the “specificity of the domain A8 for the substrate” value is given as “highest”. In addition, the “specificity of the domain A2 for the substrate” value in assay [2] is “highest”. For the same molecule, the “specificity of the domain A5 for the substrate” value in assay [3] is listed as “highest”.
In the case of `O=C(O)[C@@H]1CCCN1` [L-proline], the “specificity of the domain A8 for the substrate” value in assay [1] is given as “high specificity”.
